The values below come from patent US20230312587A1, “PTERIDINONE COMPOUNDS AND USES THEREOF” (Vertex Pharmaceutical Incorporated, priority 2018, published 2023).

Read-outs that look alike come from different tables or passages of the source.

The subject of assay [1] is β-catenin-TCF-mediated reporter transcription activity in Colo 205 cells. The assay can be described thus: Colo 205 reporter assay (TCF/LEF luciferase). Type of assay: cell-based. Particulars: five hours after addition of compound. The gist of the method: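 Luciferase signal from a TCF/LEF-driven reporter, stably integrated in Colo 205 colon cancer cells, was measured 5 h after compound addition.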

The test system of the next assay is HepG2 parental. The assay can be described thus: In vitro cell viability (CellTiter-Glo), HepG2 parental. Type of assay: cell-based. Particulars: 96 hours. As for the experimental part:
HEK293 cells containing empty pCLPCx vector (HEK293 empty), HEK293 cells stably over-expression WFS1 (HEK293 WFS1), HepG2, and HepG2 cells where WFS1 was depleted via CRISPR/Cas9 (HepG2 WFS1 KO) cells were plated into 96-well black plates (Corning, product #3904) in 100 microliters of complete DMEM cell culture media [DMEM (Life Technologies, product #11960-051) media supplemented with 10% FBS (Hyclone, catalog #SH30071.03), antimycotic/antibiotic (Life Technologies, product #15240-062), and Glutamax (Life Technologies, product #35050-061)] at 1,000 (HEK293) or 5,000 (HepG2) cells per well. Cells were allowed to attach and grow overnight, after which compounds are added at various concentrations. Cell viability was assessed 96 hrs after compound addition with CellTiter-Glo reagent (Promega, catalog #G7570) according to manufacturer's protocol and measurement on a Pherastar luminescence plate reader (BMG Labtech).
To determine the effect of WFS1 depletion on compound mediated inhibition of cell viability, parental HepG2 cells and HepG2 cells where WFS1 was deleted by CRISPR/Cas9 were exposed to increasing concentrations of either Compound 136 or Compound 253 for 96 hours after which time viability was determined using Cell Titer Glo reagent (Promega). […] The IC50s for the viability of both the HepG2 parental and WFS1 knockout cells are summarized in Table 47: A<0.5 μM; 0.5 μM≤<2.0 μM; 2.0 μM≤C<10.0 μM; D≥[…].

In assay [2] the target is HEK293 membranes over-expressing WFS-1 (Homo sapiens (Human), UniProt O76024). The assay can be described thus: Radioligand displacement assay (tritiated Compound 136 probe). In kind it is binding. Particulars: displacement of tritiated Compound 136. In short, it runs like this:
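WFS-1-overexpressing HEK293 membranes were preincubated 10 min with compound, then tritiated probe was added for 90 min at room temperature. Bound probe was collected by filtration on PEI-pretreated GF/B filters, washed and scintillation-counted. IC50 came from a 3-parameter fit of bound probe vs compound concentration.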

Where [3] appears, read: Homo sapiens, COLO 205, 5 h, Colo 205 TCF/LEF luciferase reporter, read-out: TCF reporter Colo205 IC50.
The mark [4] stands for this setting: Homo sapiens, read-out: HepG2 viability.

Sequence of HEK293 membranes over-expressing WFS-1 (O76024 whole entry): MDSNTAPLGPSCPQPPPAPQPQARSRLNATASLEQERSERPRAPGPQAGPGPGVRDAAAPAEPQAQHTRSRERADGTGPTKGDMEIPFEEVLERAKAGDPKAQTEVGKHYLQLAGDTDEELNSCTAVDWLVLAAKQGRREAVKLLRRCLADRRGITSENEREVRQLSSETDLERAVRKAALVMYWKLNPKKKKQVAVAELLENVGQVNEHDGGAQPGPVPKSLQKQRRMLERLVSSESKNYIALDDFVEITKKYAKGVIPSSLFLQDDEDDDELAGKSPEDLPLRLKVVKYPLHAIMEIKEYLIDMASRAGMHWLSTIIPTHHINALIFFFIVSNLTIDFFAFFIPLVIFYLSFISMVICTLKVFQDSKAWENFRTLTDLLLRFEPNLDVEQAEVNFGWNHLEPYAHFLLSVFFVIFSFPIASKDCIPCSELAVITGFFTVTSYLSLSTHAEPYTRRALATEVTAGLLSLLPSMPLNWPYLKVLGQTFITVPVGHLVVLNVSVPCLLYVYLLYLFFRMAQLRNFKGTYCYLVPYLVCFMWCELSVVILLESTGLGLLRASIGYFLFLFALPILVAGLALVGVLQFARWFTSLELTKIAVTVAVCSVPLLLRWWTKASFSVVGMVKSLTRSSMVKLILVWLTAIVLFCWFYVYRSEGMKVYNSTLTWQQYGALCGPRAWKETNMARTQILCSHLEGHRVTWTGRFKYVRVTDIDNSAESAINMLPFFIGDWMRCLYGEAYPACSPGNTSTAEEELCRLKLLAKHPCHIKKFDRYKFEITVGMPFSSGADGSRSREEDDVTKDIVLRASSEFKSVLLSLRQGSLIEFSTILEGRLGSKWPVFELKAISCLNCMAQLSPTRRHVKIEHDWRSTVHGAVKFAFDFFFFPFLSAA

Turning to `Cc1nc(N[C@H]2CC[C@H](n3ccc(C(F)(F)F)n3)C2)nc2c1NC(=O)[C@H](C)N2C` (single isomer, unassigned) [Compound 310], the IC50 in assay [1] (setting [3]) is 1000 to 5000 nM; in the assay with HepG2 parental (setting [4]) it was at least 10000 nM; in assay [2], 600 to 3000 nM.
`Cc1nc(N[C@@H]2CC[C@@H](n3ccc(C(F)(F)F)n3)C2)nc2c1NC(=O)[C@H](C)N2C` (single isomer, unassigned) [Compound 311]: the IC50 in assay [1] (setting [3]) is below 300 nM; with HepG2 parental (setting [4]) it was at least 10000 nM; in assay [2], 60 to 600 nM.
As for `Cc1nc(NCc2cnn(Cc3ccc(C(F)(F)F)nc3[C@@H](C)O)c2)nc2c1NC(=O)[C@H](C)N2C` (single isomer, unassigned) [Compound 420], the figures for the IC50 (in assay [1] (setting [3]); in the assay with HepG2 parental (setting [4]); in assay [2]) were below 300 nM, 500 to 2000 nM and 60 to 600 nM, respectively.
The corresponding values for `Cc1nc(NCc2cnn(Cc3ccc(F)cc3)c2)nc2c1N(C)C(=O)[C@H](C)N2C` [Compound 1, (7S)-2-(((1-(4-fluorobenzyl)-1H-pyrazol-4-yl)methyl)amino)-4,5,7,8-tetramethyl-7,8-dihydropteridin-6(5H)-one] are below 300 nM, below 500 nM and 60 to 600 nM.
With `Cc1nc(NCc2cnn(Cc3ccc(F)cc3)c2)nc2c1NC(=O)[C@H](C)N2C` [Compound 4, (7S)-2-(((1-(4-fluorobenzyl)-1H-pyrazol-4-yl)methyl)amino)-4,7,8-trimethyl-7,8-dihydropteridin-6(5H)-one], the IC50 in assay [1] (setting [3]) was below 300 nM; with HepG2 parental (setting [4]) it was 2000 to 10000 nM; in assay [2], 60 to 600 nM.
For `Cc1nc(NCc2cnn(CCc3ccc(F)cc3)c2)nc2c1NC(=O)[C@H](C)N2C` [Compound 6, (7S)-2-(((1-(4-fluorophenethyl)-1H-pyrazol-4-yl)methyl)amino)-4,7,8-trimethyl-7,8-dihydropteridin-6(5H)-one], the IC50 lay within 300 to 1000 nM in assay [1] (setting [3]), 2000 to 10000 nM in the assay on HepG2 parental (setting [4]) and 60 to 600 nM in assay [2].
Take `Cc1nc(NCc2cnn(CC3CCC3)c2)nc2c1N(C)C(=O)[C@H](C)N2C` [Compound 7, (7S)-2-(((1-(cyclobutylmethyl)-1H-pyrazol-4-yl)methyl)amino)-4,5,7,8-tetramethyl-7,8-dihydropteridin-6(5H)-one]: the figures for the IC50 (in assay [1] (setting [3]); with HepG2 parental (setting [4]); in assay [2]) were 300 to 1000 nM, 2000 to 10000 nM and 60 to 600 nM, respectively.
As for `Cc1nc(NCc2cnn(CCc3ccc(F)cc3)c2)nc2c1N(C)C(=O)[C@H](C)N2C` [Compound 8, (7S)-2-(((1-(4-fluorophenethyl)-1H-pyrazol-4-yl)methyl)amino)-4,5,7,8-tetramethyl-7,8-dihydropteridin-6(5H)-one], the figures for the IC50 (in assay [1] (setting [3]); with HepG2 parental (setting [4]); in assay [2]) were 300 to 1000 nM, 2000 to 10000 nM and 600 to 3000 nM, respectively.
The corresponding values for `CC[C@H]1C(=O)Nc2cnc(NCc3cnn(Cc4ccc(F)cc4)c3)nc2N1C` [Compound 9, (7S)-7-ethyl-2-(((1-(4-fluorobenzyl)-1H-pyrazol-4-yl)methyl)amino)-8-methyl-7,8-dihydropteridin-6(5H)-one] are below 300 nM, at least 10000 nM and 60 to 600 nM.
With `Cc1nc(NCc2cnn(C[C@H](C)c3ccc(F)cc3)c2)nc2c1NC(=O)[C@H](C)N2C` [Compound 96, (7S)-2-(((1-((R)-2-(4-fluorophenyl)propyl)-1H-pyrazol-4-yl)methyl)amino)-4,7,8-trimethyl-7,8-dihydropteridin-6(5H)-one], the results for the IC50 (in assay [1] (setting [3]); in the assay with HepG2 parental (setting [4]); in assay [2]) were below 300 nM, 2000 to 10000 nM and below 60 nM, respectively.
`Cc1nc(NCc2cnn(CCC3CCOCC3)c2)nc2c1NC(=O)[C@H](C)N2C` [Compound 115, (7S)-4,7,8-trimethyl-2-(((1-(2-(tetrahydro-2H-pyran-4-yl)ethyl)-1H-pyrazol-4-yl)methyl)amino)-7,8-dihydropteridin-6(5H)-one]: the values for the IC50 (in assay [1] (setting [3]); in the assay on HepG2 parental (setting [4]); in assay [2]) were 1000 to 5000 nM, at least 10000 nM and 600 to 3000 nM, respectively.
`CCOc1ccc(CCn2cc(CNc3ncc4c(n3)N(C)[C@@H](C)C(=O)N4)cn2)cc1` [Compound 121, (7S)-2-(((1-(4-ethoxyphenethyl)-1H-pyrazol-4-yl)methyl)amino)-7,8-dimethyl-7,8-dihydropteridin-6(5H)-one]: the IC50 in assay [1] (setting [3]) is 1000 to 5000 nM; in the assay on HepG2 parental (setting [4]), at least 10000 nM; in assay [2], 60 to 600 nM.
Turning to `Cc1nc(NCc2cnn(C3CCN(C(=O)c4ccc(F)cc4)CC3)c2)nc2c1NC(=O)[C@H](C)N2C` [Compound 125, (7S)-2-(((1-(1-(4-Fluorobenzoyl)piperidin-4-yl)-1H-pyrazol-4-yl)methyl)amino)-4,7,8-trimethyl-7,8-dihydropteridin-6(5H)-one], the IC50 in assay [1] (setting [3]) is 1000 to 5000 nM; in the assay on HepG2 parental (setting [4]) it was 2000 to 10000 nM; in assay [2] it was 60 to 600 nM.
As to `Cc1nc(NCc2cnn(CC(C)(O)c3ccc(F)cc3)c2)nc2c1NC(=O)[C@H](C)N2C` (stereo partly drawn) [Compound 128, (7S)-2-(((1-(2-(4-fluorophenyl)-2-hydroxypropyl)-1H-pyrazol-4-yl)methyl)amino)-4,7,8-trimethyl-7,8-dihydropteridin-6(5H)-one], the IC50 was 1000 to 5000 nM in assay [1] (setting [3]), 2000 to 10000 nM with HepG2 parental (setting [4]) and at least 3000 nM in assay [2].
Regarding `Cc1nc(NCc2cnn(Cc3ccc(C(F)(F)F)nc3)c2)nc2c1NC(=O)[C@H](C)N2C` [Compound 136, (7S)-4,7,8-trimethyl-2-(((1-((6-(trifluoromethyl)pyridin-3-yl)methyl)-111-pyrazol-4-yl)methyl)amino)-7,8-dihydropteridin-6(5H)-one], the IC50 in assay [1] (Colo 205 TCF/LEF luciferase reporter, read-out: TCF reporter Colo205 IC50) was below 300 nM; in the assay on HepG2 parental (read-out: HepG2 viability), 500 to 2000 nM; in the assay with HepG2 parental (cell viability, Cell Titer Glo, read-out: IC50), 330 nM; with HepG2 parental (cell viability, read-out: IC50 class) it was below 500 nM; in assay [2] it was 60 to 600 nM.
As to `Cc1nn(C)cc1Cn1cc(CNc2nc(C)c3c(n2)N(C)[C@@H](C)C(=O)N3)cn1` [Compound 139, (7S)-2-(((1-((1,3-dimethyl-1H-pyrazol-4-yl)methyl)-1H-pyrazol-4-yl)methyl)amino)-4,7,8-trimethyl-7,8-dihydropteridin-6(5H)-one], the IC50 in assay [1] (setting [3]) is 1000 to 5000 nM; with HepG2 parental (setting [4]), at least 10000 nM; in assay [2], 600 to 3000 nM.
On to `Cc1nc(NCc2cnn(Cc3ccc(C(F)(F)F)cc3)c2)nc2c1NC(=O)[C@H](C)N2C` [Compound 149, (7S)-4,7,8-trimethyl-2-(((1-(4-(trifluoromethyl)benzyl)-1H-pyrazol-4-yl)methyl)amino)-7,8-dihydropteridin-6(5H)-one], for which the IC50 in assay [1] (setting [3]) was below 300 nM; in the assay on HepG2 parental (setting [4]), below 500 nM; in assay [2], 60 to 600 nM.
Take `Cc1ncc(Cn2cc(CNc3nc(C)c4c(n3)N(C)[C@@H](C)C(=O)N4)cn2)cn1` [Compound 163, (7S)-4,7,8-trimethyl-2-(((1-((2-methylpyrimidin-5-yl)methyl)-1H-pyrazol-4-yl)methyl)amino)-7,8-dihydropteridin-6(5H)-one]: the IC50 in assay [1] (setting [3]) is 1000 to 5000 nM; with HepG2 parental (setting [4]), at least 10000 nM; in assay [2], at least 3000 nM.
The corresponding values for `Cc1cnc(C(F)(F)F)nc1-n1cc(CNc2ncc3c(n2)N(C)[C@@H](C)C(=O)N3)cn1` [Compound 164, (7S)-7,8-dimethyl-2-(((1-(5-methyl-2-(trifluoromethyl)pyrimidin-4-yl)-1H-pyrazol-4-yl)methyl)amino)-7,8-dihydropteridin-6(5H)-one] are 1000 to 5000 nM, at least 10000 nM and 60 to 600 nM.
In the case of `Cc1nc(NCc2cnn(Cc3cc(C(F)(F)F)nn3C)c2)nc2c1NC(=O)[C@H](C1CC1)N2C` [Compound 396, (7S)-7-Cyclopropyl-4,8-dimethyl-2-(((1-((1-methyl-3-(trifluoromethyl)-1H-pyrazol-5-yl)methyl)-1H-pyrazol-4-yl)methyl)amino)-7,8-dihydropteridin-6(5H)-one], the IC50 in assay [1] (setting [3]) is below 300 nM; in assay [2], 60 to 600 nM.
For `Cc1nc(NCc2cnn(Cc3cc(C(F)(F)F)nn3C)c2)nc2c1NC(=O)[C@H](C(C)C)N2C` [Compound 397, (7S)-7-Isopropyl-4,8-dimethyl-2-(((1-((1-methyl-3-(trifluoromethyl)-1H-pyrazol-5-yl)methyl)-1H-pyrazol-4-yl)methyl)amino)-7,8-dihydropteridin-6(5H)-one], the IC50 in assay [1] (Homo sapiens, COLO 205, 5 h, Colo 205 cells with stably transfected TCF/LEF luciferase reporter, read-out: TCF reporter Colo205) is below 300 nM; in assay [2] it was 60 to 600 nM.
